Values after ≈ are worked out from the molar mass of the structure shown. Active and inactive are the calls of the source. No cut-off for these calls is given here.
Legend:
[1] = molecular target: Cyclin-dependent kinase 4/cyclin D1 (Homo sapiens, UniProt P11802); assay: Inhibition of CDK4/cyclin D1 (unknown origin); format: protein-complex assay
MIA PaCa-2 [2] = assay: Antiproliferative activity against human MIA PaCa-2 cells assessed as inhibition of cell growth by MTT assay; format: functional, cell-based
MIA PaCa-2 [3] = assay: Antiproliferative activity against human MIA PaCa-2 cells assessed as inhibition of cell proliferation at 0.5 uM in presence of 10 to 20 nM PI3K/mTOR inhibitor, BEZ235; format: functional, cell-based
MIA PaCa-2 [4] = assay: Potency index, ratio of ribociclib IC50 to test compound IC50 for antiproliferative activity against human MIA PaCa-2 cells by MTT assay; format: functional
[5] = molecular target: Cyclin-dependent kinase 6 (Homo sapiens) (UniProt Q00534); assay: Inhibition of CDK6 (unknown origin) at 1 uM
[6] = molecular target: Cyclin-dependent kinase 4 (Homo sapiens) (UniProt P11802); assay: Inhibition of CDK4 (unknown origin) at 1 uM
[7] = molecular target: CDK6/cyclin D1 (Homo sapiens) (UniProt P24385+Q00534); assay: Inhibition of human CDK6/cyclin D1 at 1 uM relative to control; format: protein-complex assay
[8] = molecular target: Cyclin-dependent kinase 4/cyclin D1 (Homo sapiens) (UniProt P11802+P24385); assay: Inhibition of human CDK4/cyclin D1 at 1 uM relative to control; format: protein-complex assay
[9] = molecular target: CDK4/Cyclin D3 (Homo sapiens) (UniProt P11802+P30281); assay: Inhibition of human CDK4/cyclin D3 at 1 uM relative to control; format: protein-complex assay
[10] = molecular target: Mitogen-activated protein kinase kinase kinase 9 (Homo sapiens) (UniProt P80192); assay: Inhibition of human MLK1 at 1 uM relative to control
[11] = molecular target: Tyrosine-protein kinase Fer (Homo sapiens) (UniProt P16591); assay: Inhibition of human FER at 1 uM relative to control
[12] = molecular target: Calcium/calmodulin-dependent protein kinase type 1 (Homo sapiens) (UniProt Q14012); assay: Inhibition of human CAMK1 at 1 uM relative to control
[13] = molecular target: Calcium/calmodulin-dependent protein kinase kinase 1 (Homo sapiens) (UniProt Q8N5S9); assay: Inhibition of human CAMKKA at 1 uM relative to control
[14] = molecular target: Dual specificity protein kinase TTK (Homo sapiens) (UniProt P33981); assay: Inhibition of human TTK at 1 uM relative to control
MIA PaCa-2 [15] = assay: Cell cycle arrest in human MIA PaCa-2 cells assessed as accumulation at G1 phase; format: functional, cell-based; details: dose 0.8-2.5 µM
MIA PaCa-2 [16] = assay: Cell cycle arrest in human MIA PaCa-2 cells assessed as accumulation at G1 phase at 2.5 uM (reference value: 44.09 %); format: functional
MIA PaCa-2 [17] = assay: Cell cycle arrest in human MIA PaCa-2 cells assessed as accumulation at G1 phase at 1.6 uM (reference value: 44.09 %); format: functional
MIA PaCa-2 [18] = assay: Cell cycle arrest in human MIA PaCa-2 cells assessed as accumulation at G1 phase at 0.8 uM (reference value: 44.09 %); format: functional
MIA PaCa-2 [19] = assay: Cell cycle arrest in human MIA PaCa-2 cells assessed as accumulation at G2 phase at 2.5 uM (reference value: 10.64 %); format: functional
MIA PaCa-2 [20] = assay: Cell cycle arrest in human MIA PaCa-2 cells assessed as accumulation at G2 phase at 1.6 uM (reference value: 10.64 %); format: functional
MIA PaCa-2 [21] = assay: Cell cycle arrest in human MIA PaCa-2 cells assessed as accumulation at G2 phase at 0.8 uM (reference value: 10.64 %); format: functional
MIA PaCa-2 [22] = assay: Cell cycle arrest in human MIA PaCa-2 cells assessed as accumulation at S phase at 2.5 uM (reference value: 45.27 %); format: functional
MIA PaCa-2 [23] = assay: Cell cycle arrest in human MIA PaCa-2 cells assessed as accumulation at S phase at 1.6 uM (reference value: 45.27 %); format: functional
MIA PaCa-2 [24] = assay: Cell cycle arrest in human MIA PaCa-2 cells assessed as accumulation at S phase at 0.8 uM (reference value: 45.27 %); format: functional
BXPC-3 = assay: Antiproliferative activity against human BxPC-3 cells assessed as inhibition of cell growth by MTT assay; format: functional, cell-based
CDK6/cyclin D1 = CDK6/cyclin D1 (Homo sapiens, UniProt Q00534); assay: Inhibition of CDK6/cyclin D1 (unknown origin); format: protein-complex assay
MIA PaCa-2 [25] = assay: Antiproliferative activity against human MIA PaCa-2 cells assessed as inhibition of cell proliferation at 1 uM in presence of PI3K/mTOR inhibitor, BEZ235; format: functional, cell-based
[26] = Solubility of the compound at pH 7.4; format: physicochemical; details: buffer
[27] = Permeability of the compound at pH 7.4 by PAMPA; format: ADME; details: read-out: permeability
[28] = Permeability of the compound at pH 5.0 by PAMPA; format: ADME; details: read-out: permeability
[29] = Metabolic stability in rat liver microsomes assessed as half life; format: ADME, Microsome
[30] = Metabolic stability in human liver microsomes assessed as half life; format: ADME, Microsome
[31] = molecular target: Cyclin-dependent kinase 9 (Homo sapiens) (UniProt P50750); assay: Inhibition of CDK9 (unknown origin) at 1 uM
[32] = molecular target: Cyclin-dependent kinase 7 (Homo sapiens) (UniProt P50613); assay: Inhibition of CDK7 (unknown origin) at 1 uM
[33] = molecular target: Cyclin-dependent kinase 8 (Homo sapiens) (UniProt P49336); assay: Inhibition of CDK8 (unknown origin) at 1 uM
[34] = molecular target: Cyclin-dependent kinase 5 (Homo sapiens) (UniProt Q00535); assay: Inhibition of CDK5 (unknown origin) at 1 uM
[35] = molecular target: Cyclin-dependent kinase 3 (Homo sapiens) (UniProt Q00526); assay: Inhibition of CDK3 (unknown origin) at 1 uM
[36] = molecular target: Cyclin-dependent kinase 2 (Homo sapiens) (UniProt P24941); assay: Inhibition of CDK2 (unknown origin) at 1 uM
[37] = molecular target: Cyclin-dependent kinase 1 (Homo sapiens) (UniProt P06493); assay: Inhibition of CDK1 (unknown origin) at 1 uM

Sequence of Cyclin-dependent kinase 4/cyclin D1 (P11802 whole entry): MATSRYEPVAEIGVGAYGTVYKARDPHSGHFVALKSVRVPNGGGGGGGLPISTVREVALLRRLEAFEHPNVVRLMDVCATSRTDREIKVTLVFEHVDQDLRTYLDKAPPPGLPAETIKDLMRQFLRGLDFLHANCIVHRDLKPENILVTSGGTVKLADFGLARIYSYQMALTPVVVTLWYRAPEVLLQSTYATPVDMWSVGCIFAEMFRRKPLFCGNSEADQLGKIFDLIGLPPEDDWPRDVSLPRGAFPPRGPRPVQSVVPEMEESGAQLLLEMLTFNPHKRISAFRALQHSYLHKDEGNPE
Sequence of Cyclin-dependent kinase 4/cyclin D1 (P24385 whole entry, further chain): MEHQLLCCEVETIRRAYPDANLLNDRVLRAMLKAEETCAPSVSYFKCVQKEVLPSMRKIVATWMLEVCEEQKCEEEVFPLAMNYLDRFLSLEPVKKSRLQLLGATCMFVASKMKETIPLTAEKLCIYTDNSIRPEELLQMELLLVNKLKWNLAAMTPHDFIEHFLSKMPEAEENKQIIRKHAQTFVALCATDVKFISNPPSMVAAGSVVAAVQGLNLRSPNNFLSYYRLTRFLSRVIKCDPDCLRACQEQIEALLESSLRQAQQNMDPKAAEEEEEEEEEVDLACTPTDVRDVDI
Sequence of Cyclin-dependent kinase 4 (Homo sapiens) (P11802 whole entry): as the sequence (P11802 whole entry) above
Sequence of Cyclin-dependent kinase 6 (Homo sapiens) (Q00534 whole entry): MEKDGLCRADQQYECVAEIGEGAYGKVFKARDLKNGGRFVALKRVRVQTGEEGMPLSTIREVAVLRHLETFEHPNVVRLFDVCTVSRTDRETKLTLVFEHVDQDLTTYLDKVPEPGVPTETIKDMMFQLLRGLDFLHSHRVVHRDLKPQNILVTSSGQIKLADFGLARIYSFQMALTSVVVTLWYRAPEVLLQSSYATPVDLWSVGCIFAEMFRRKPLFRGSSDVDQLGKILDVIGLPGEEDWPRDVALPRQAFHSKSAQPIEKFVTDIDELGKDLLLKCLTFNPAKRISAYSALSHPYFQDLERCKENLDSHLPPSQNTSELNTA
Sequence of CDK6/cyclin D1 (P24385 whole entry): as the sequence (P24385 whole entry, further chain) above
Sequence of CDK6/cyclin D1 (Q00534 whole entry): as the sequence (Q00534 whole entry) above
Sequence of Tyrosine-protein kinase Fer (Homo sapiens) (P16591 whole entry, looked up): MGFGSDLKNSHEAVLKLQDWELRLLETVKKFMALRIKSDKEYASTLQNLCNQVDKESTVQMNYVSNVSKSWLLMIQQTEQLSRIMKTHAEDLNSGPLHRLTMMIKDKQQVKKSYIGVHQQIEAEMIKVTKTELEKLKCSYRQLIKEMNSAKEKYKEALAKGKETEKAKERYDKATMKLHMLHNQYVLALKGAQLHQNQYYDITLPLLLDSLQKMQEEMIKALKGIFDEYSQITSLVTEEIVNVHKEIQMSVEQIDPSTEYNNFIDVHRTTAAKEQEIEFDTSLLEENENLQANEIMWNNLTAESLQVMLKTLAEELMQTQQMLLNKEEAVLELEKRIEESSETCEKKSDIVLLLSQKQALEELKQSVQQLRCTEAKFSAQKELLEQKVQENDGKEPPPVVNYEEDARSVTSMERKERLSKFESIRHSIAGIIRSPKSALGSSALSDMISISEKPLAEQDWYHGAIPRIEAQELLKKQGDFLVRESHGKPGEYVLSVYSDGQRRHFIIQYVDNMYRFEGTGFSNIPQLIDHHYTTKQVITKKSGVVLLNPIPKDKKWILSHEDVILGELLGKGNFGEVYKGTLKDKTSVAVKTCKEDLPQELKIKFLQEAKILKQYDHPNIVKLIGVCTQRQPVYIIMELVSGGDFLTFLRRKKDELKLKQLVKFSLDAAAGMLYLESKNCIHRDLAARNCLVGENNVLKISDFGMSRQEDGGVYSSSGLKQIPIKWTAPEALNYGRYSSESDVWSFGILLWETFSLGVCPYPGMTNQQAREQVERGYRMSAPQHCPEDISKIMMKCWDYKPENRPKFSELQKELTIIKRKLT
Sequence of Mitogen-activated protein kinase kinase kinase 9 (Homo sapiens) (P80192 whole entry, looked up): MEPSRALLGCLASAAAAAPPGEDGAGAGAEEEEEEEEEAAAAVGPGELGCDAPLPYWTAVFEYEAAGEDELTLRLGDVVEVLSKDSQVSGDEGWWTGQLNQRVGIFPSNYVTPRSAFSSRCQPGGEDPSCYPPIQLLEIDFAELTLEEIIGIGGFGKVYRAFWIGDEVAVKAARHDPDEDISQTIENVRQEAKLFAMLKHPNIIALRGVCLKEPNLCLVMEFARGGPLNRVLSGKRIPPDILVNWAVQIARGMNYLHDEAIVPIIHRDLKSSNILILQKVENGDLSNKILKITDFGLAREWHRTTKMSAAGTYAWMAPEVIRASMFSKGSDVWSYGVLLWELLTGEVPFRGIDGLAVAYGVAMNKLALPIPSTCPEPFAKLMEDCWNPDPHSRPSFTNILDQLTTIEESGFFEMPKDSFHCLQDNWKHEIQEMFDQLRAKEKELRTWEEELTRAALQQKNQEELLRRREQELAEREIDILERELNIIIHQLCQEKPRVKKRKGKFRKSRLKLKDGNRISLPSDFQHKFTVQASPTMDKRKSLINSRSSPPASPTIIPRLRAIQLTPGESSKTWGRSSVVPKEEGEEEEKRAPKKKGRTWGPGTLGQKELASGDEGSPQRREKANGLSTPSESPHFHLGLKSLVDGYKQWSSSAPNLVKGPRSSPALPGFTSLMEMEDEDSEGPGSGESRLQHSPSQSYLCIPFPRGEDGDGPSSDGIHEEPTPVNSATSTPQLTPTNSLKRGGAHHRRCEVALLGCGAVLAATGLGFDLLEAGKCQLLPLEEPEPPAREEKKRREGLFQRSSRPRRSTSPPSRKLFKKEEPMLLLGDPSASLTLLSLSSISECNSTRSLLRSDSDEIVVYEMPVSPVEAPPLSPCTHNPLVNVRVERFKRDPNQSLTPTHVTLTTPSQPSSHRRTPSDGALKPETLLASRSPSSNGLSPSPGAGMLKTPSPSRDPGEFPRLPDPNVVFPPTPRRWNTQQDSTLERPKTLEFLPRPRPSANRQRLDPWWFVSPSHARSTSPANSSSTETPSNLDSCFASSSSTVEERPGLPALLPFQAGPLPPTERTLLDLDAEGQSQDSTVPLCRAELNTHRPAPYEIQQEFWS
Sequence of Dual specificity protein kinase TTK (Homo sapiens) (P33981 whole entry): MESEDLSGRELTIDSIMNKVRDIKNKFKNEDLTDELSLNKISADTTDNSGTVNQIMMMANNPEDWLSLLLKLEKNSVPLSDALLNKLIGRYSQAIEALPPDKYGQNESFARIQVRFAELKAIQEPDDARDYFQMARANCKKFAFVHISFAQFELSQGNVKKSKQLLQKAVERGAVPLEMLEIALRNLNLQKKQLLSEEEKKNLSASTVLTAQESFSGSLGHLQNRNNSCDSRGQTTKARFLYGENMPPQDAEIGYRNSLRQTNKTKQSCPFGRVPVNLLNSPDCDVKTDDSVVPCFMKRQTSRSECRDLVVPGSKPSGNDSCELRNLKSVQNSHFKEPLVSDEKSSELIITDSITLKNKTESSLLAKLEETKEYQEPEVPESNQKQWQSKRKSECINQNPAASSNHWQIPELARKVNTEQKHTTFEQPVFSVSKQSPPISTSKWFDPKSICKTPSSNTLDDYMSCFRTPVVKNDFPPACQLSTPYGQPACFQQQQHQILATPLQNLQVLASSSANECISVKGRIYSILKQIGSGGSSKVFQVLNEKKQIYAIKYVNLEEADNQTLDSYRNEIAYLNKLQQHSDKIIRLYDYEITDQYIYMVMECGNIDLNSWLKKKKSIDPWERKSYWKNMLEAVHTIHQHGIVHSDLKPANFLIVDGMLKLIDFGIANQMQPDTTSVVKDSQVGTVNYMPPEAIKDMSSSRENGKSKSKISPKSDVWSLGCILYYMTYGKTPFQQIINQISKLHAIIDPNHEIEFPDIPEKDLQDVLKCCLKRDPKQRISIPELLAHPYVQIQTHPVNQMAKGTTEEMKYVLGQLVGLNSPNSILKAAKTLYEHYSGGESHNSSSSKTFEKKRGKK
Sequence of Cyclin-dependent kinase 7 (Homo sapiens) (P50613 whole entry): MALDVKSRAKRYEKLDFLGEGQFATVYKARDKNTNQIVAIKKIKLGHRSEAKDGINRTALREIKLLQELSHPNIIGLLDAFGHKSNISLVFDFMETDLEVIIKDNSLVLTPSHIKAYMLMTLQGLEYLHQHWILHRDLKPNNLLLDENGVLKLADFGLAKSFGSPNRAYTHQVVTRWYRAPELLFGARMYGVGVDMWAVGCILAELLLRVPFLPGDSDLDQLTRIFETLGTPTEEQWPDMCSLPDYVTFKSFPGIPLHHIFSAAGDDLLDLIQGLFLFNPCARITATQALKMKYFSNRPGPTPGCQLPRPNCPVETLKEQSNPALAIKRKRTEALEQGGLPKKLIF

O=C(Nc1ccccc1)c1cc2cnc(Nc3ccccc3)nc2n1C1CCCC1
IC50 [1]: 1190 nM | IC50 (MIA PaCa-2 [2]): 14 µM

CN(C)C(=O)c1cc2cnc(Nc3ccc(Cl)cc3)nc2n1C1CCCC1
IC50 [1]: 143 nM | IC50 (MIA PaCa-2 [2]): 13 µM

CC(=O)c1c(C)c2cnc(Nc3ccc(N4CCNCC4)cn3)nc2n(C2CCCC2)c1=O [PALBOCICLIB]
IC50 (MIA PaCa-2 [2]): 10.6 µM

CCC(CO)Nc1ncc2cc(C(=O)N(C)C)n(C3CCCC3)c2n1 (stereo unspecified)
IC50 [1]: 523 nM | IC50 (MIA PaCa-2 [2]): 30.9 µM

O=C(Nc1ccc[n+]([O-])c1)c1cc2cnc(Nc3ccc(N4CCNCC4)cn3)nc2n1C1CCCC1
IC50 [1]: 3050 nM | IC50 (MIA PaCa-2 [2]): 124 µM

COc1ccccc1NC(=O)c1cc2cnc(Nc3ccc(N4CCNCC4)cn3)nc2n1C1CCCC1
Activity (MIA PaCa-2 [3]): Active | Ratio IC50 (MIA PaCa-2 [4]): 10 | inhibition [5]: Active | inhibition [6]: Active | inhibition [7]: > 80% | inhibition [8]: > 80% | inhibition [9]: > 80% | inhibition [10]: > 80% | inhibition [11]: > 80% | inhibition [12]: > 80% | inhibition [13]: > 80% | inhibition [14]: > 80% | Activity (MIA PaCa-2 [15]): Dose-dependent effect | Activity (MIA PaCa-2 [16]): 74.31% | Activity (MIA PaCa-2 [17]): 65.48% | Activity (MIA PaCa-2 [18]): 60% | Activity (MIA PaCa-2 [19]): 4.06% | Activity (MIA PaCa-2 [20]): 3.69% | Activity (MIA PaCa-2 [21]): 4.85% | Activity (MIA PaCa-2 [22]): 21.63% | Activity (MIA PaCa-2 [23]): 30.8% | Activity (MIA PaCa-2 [24]): 35.15% | IC50 (BXPC-3): 4.12 µM | IC50 (CDK6/cyclin D1): 52.3 nM | IC50 [1]: 20.5 nM | IC50 (MIA PaCa-2 [2]): 1.83 µM | Activity (MIA PaCa-2 [25]): Active | solubility [26]: 1.1 µg/mL (≈ 2.15 µM) | Papp [27]: 464 ×10⁻⁶ cm/s | Papp [28]: 517 ×10⁻⁶ cm/s | half-life [29]: > 30 min | half-life [30]: 72.8 min

Cc1ccccc1NC(=O)c1cc2cnc(Nc3ccc(N4CCNCC4)cn3)nc2n1C1CCCC1
inhibition [5]: Active | inhibition [6]: Active | IC50 (BXPC-3): 3.34 µM | IC50 (CDK6/cyclin D1): 64 nM | IC50 [1]: 28.2 nM | IC50 (MIA PaCa-2 [2]): 2.5 µM

O=C(Nc1ccccc1)c1cc2cnc(Nc3ccc(N4CCNCC4)cn3)nc2n1C1CCCC1
inhibition [5]: Active | inhibition [6]: Active | IC50 (BXPC-3): 5.12 µM | IC50 (CDK6/cyclin D1): 63.8 nM | IC50 [1]: 28.7 nM | IC50 (MIA PaCa-2 [2]): 2.8 µM

CCN1CCN(Cc2ccc(Nc3ncc(F)c(-c4cc(F)c5nc(C)n(C(C)C)c5c4)n3)nc2)CC1 [ABEMACICLIB]
IC50 (MIA PaCa-2 [2]): 5.8 µM

COc1ccc(NC(=O)c2cc3cnc(Nc4ccc(N5CCNCC5)cn4)nc3n2C2CCCC2)cc1
IC50 (BXPC-3): 8.97 µM | IC50 (CDK6/cyclin D1): 391 nM | IC50 [1]: 121 nM | IC50 (MIA PaCa-2 [2]): 2.88 µM

COc1cccc(NC(=O)c2cc3cnc(Nc4ccc(N5CCNCC5)cn4)nc3n2C2CCCC2)c1
IC50 (BXPC-3): 10.5 µM | IC50 (CDK6/cyclin D1): 169 nM | IC50 [1]: 53.4 nM | IC50 (MIA PaCa-2 [2]): 2.65 µM

O=C(Nc1ccccc1)c1cc2cnc(Nc3ccc(N4CCNCC4)cn3)nc2n1Cc1ccccc1
inhibition [31]: inactive | inhibition [32]: inactive | inhibition [33]: inactive | inhibition [34]: inactive | inhibition [5]: inactive | inhibition [35]: inactive | inhibition [6]: inactive | inhibition [36]: inactive | inhibition [37]: inactive | inhibition [7]: inactive | inhibition [8]: inactive | inhibition [9]: inactive | inhibition [10]: inactive | inhibition [11]: inactive | inhibition [12]: inactive | inhibition [13]: inactive | inhibition [14]: inactive | IC50 [1]: > 100000 nM | IC50 (MIA PaCa-2 [2]): 3.6 µM

— ChEMBL document CHEMBL4673362, “Design, synthesis, and biological evaluation of 2,6,7-substituted pyrrolo[2,3-d]pyrimidines as cyclin dependent kinase inhibitor in pancreatic cancer cells” (Bioorg Med Chem Lett, 2021)
